From US20050118658A1, “Use of ERRalpha phosphorylation status as a breast cancer biomarker” (priority 2003, published 2005)

What was measured:
ERRα = test: Immunoblot analysis of ERRα expression in ERRα-transfected BT-474 cells; type: cell-based, human; details: BT-474 cells transfected with ERRα, 48 h; 20 μg/ml trastuzumab, 1 μM gefitinib, 20 μM U0126 or 20 μM LY294002
Procedure: (§1) BT-474 cells were co-transfected in parallel with the ERE(5x)-regulated and TATA dual-luciferase reporter gene sets along with the indicated expression plasmids. […] In panel (B), the cells were incubated for 48 h in estrogen-free medium supplemented with dimethyl sulfoxide as the drug vehicle control, 20 μM U0126 (MEK inhibitor), or 20 μM LY294002 (PI3K inhibitor) as indicated. After incubation for 48 h, the cells were harvested for dual-luciferase assays. Data were analyzed as described in the legend to FIG. 2. (C) Immunoblot analysis of protein extracts (20 μg per sample) prepared from BT-474 cells treated as in panels A and B above for luciferase activity. The membrane was probed with antibodies that react specifically with ERRα. Reactive proteins were visualized by enhanced chemiluminescence and autoradiography. (D) Immunoblot analysis as in panel C above, only the membrane was probed with antibodies that react specifically with phosphorylated Akt (p-Akt), total Akt, phosphorylated MAPK (p-MAPK) or total MAPK.
(§2) Proteins were extracted in Cell Lysis Buffer (Cell Signaling Technology, Beverly, Mass.) supplemented with Protease Inhibitor Cocktail Set III and Phosphatase Inhibitor Cocktail Set II (Calbiochem). Protein amounts were quantified with Coomassie Protein Assay Reagent (Pierce Biotechnology) with BSA as the standard. […] In FIG. 5D, the membrane was probed sequentially with p44/42 MAPK polyclonal antibody, phospho-specific p44/42 MAPK (Thr202/Tyr204) monoclonal antibody E10, Akt polyclonal antibody, and phospho-specific Akt (Ser473) polyclonal antibody (Cell Signaling Technology). Reacting material was detected using horseradish peroxidase-conjugated secondary antibodies (Jackson ImmunoResearch Laboratories, West Grove, Pa.) together with enhanced chemiluminescence (Amersham Pharmacia) and autoradiography.

MCF-7 cells [1] = test: 7 day growth assay, DNA content per well, MCF-7 cells; details: 1I M gefitinib, 7 days
Procedure: Using 12-well plates, MCF-7 and BT-474 cells were seeded at 15,000 and 30,000 cells per well. Cells were cultured for 7 days in the presence of the indicated test agents with media changes at day 0, day 2 and day 5. Following the 7 day treatment course, cells were assayed for DNA content per well. The results shown represent the mean ± SEM of three replicate wells.
MCF-7 and BT-474 cells were seeded in 12-well plates at 15,000 and 30,000 cells per well, respectively. Cells were allowed to grow in the presence of the test agents for a total of 7 days, after which, they were harvested for measurement of DNA content per well using a fluorescent DNA quantification kit (Bio-Rad, Hercules, Calif.). Day 0 was considered to be 24 h after the cells were seeded, when the medium was initially replaced with fresh medium containing the test agents. The cell culture medium was again exchanged with fresh medium containing the appropriate test agents on days 2 and 5. […] The effects on cellular proliferation of the test agents are shown as the percentage of DNA amount per well relative to the control treated cells.

BT-474 cells = details: literature statement; cited from earlier work
[2] = test system: phosphorylated MAPK (p-MAPK); test: Immunoblot analysis of phosphorylated versus total MAPK in BT-474 cells; type: cell-based, human; details: 48 h, 20 μg/ml trastuzumab, 1 μM gefitinib, 20 μM U0126 or 20 μM LY294002
Procedure: as §1, §2

MCF-7 cells [3] = details: literature statement; cited from earlier work
[4] = test system: phosphorylated Akt (p-Akt); test: Immunoblot analysis of phosphorylated versus total Akt in BT-474 cells; type: cell-based, human; details: 48 h, 20 μg/ml trastuzumab, 1 μM gefitinib, 20 μM U0126 or 20 μM LY294002
Procedure: as §1, §2

SMILES: COc1cc2ncnc(Nc3ccc(F)c(Cl)c3)c2cc1OCCCN1CCOCC1 [gefitinib]
- ERRα expression (immunoblot) (ERRα): expression was maintained
- effect on growth of MCF-7 cells (MCF-7 cells [1]): did not significantly affect the growth
- effect on growth of BT-474 cells (known, ref. 26) (BT-474 cells): significantly inhibit the growth
- phosphorylation of MAPK / MEK/MAPK pathway activation (immunoblot) [2]: inhibited activation of the MEK/MAPK and PI3K/Akt signaling pathways
- effect on growth of MCF-7 cells (known, ref. 35) (MCF-7 cells [3]): affect only minimally the growth
- phosphorylation of Akt / PI3K/Akt pathway activation (immunoblot) [4]: inhibited activation of the MEK/MAPK and PI3K/Akt signaling pathways
